Test results: US20020137929A1, “1 - (3-heterocyclylphenyl) isothiourea, -isourea, -guanidine and -amidine herbicidal agents” (Intellectual Property Department, BASF Aktiengesellschaft, priority 1998, published 2002)

Tests used:
GALAP (Galium) = assay: Preemergence herbicidal evaluation; assay type: in vivo, Galium aparine; conditions: rated 4-5 weeks after treatment; for GALAP rating: preemergence, 0-9 scale
Procedure, shortened: (§1)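 Scores (0–9) reflect visual comparison with control plants for stand, vigor, malformation, size and chlorosis. Compound was applied to the soil after sowing, before emergence, as an aqueous acetone spray (about 0.0156–0.500 kg/ha), and cups were kept in a greenhouse for 4–5 weeks.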

ZEAMX (Corn, Field) = assay: Postemergence herbicidal evaluation; assay type: in vivo, Zea mays; conditions: postemergence
Procedure, shortened: (§2)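 Herbicidal effect was judged by eye on a 0–9 scale covering stand, vigor, deformity, size and chlorosis, compared with controls, four to five weeks after seedlings about two weeks old were sprayed (40 psi, ~0.0156–0.500 kg/ha).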

ABUTH (Velvetleaf) = assay: Postemergence herbicidal evaluation; assay type: in vivo, Abutilon theophrasti; conditions: postemergence
Procedure, shortened: as §2

CYPIR (Rice Flatsedge) = assay: Postemergence weed control under flooded paddy conditions; assay type: in vivo, Cyperus iria; conditions: postemergence weeds
Procedure, shortened: (§3)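 Containers holding 3–5 cm weeds and rice at 1.5–2.5 leaves are flooded to 1.5–3 cm above soil. Compound in 50/50 v/v aqueous/acetone is then added directly to the water, about 0.0313–0.500 kg/ha. Plants are kept in the greenhouse and rated 0–9 visually at 3–4 weeks.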

[1] = system: CHEAL (Lambsquarters, Common); assay: Preemergence herbicidal evaluation; assay type: in vivo, Chenopodium album; conditions: rated 4-5 weeks after treatment; for CHEAL rating: preemergence, 0-9 scale
Procedure, shortened: as §1

ORYSAT (Rice, Tebonnet) = assay: Postemergence herbicidal evaluation; assay type: in vivo, Oryza sativa, (L.) Tebonnet; conditions: postemergence
Procedure, shortened: as §2

[2] = system: CHEAL (Lambsquarters, Common); assay: Postemergence herbicidal evaluation; assay type: in vivo, Chenopodium album; conditions: postemergence
Procedure, shortened: as §2

[3] = system: GLXMAW (Soybean, Williams); assay: Postemergence herbicidal evaluation; assay type: in vivo, Glycine max, (L.) Merr. cv Williams; conditions: postemergence
Procedure, shortened: as §2

AMBEL (Ragweed, Common) [4] = assay: Postemergence herbicidal evaluation; assay type: in vivo, Ambrosia artemisifolia; conditions: postemergence
Procedure, shortened: as §2

CYPSE (Flatsedge) [5] = assay: Postemergence weed control under flooded paddy conditions; assay type: in vivo, Cyperus serotinus; conditions: postemergence weeds
Procedure, shortened: as §3

AMBEL (Ragweed, Common) [6] = assay: Preemergence herbicidal evaluation; assay type: in vivo, Ambrosia artemisifolia; conditions: rated 4-5 weeks after treatment; for AMBEL rating: preemergence, 0-9 scale
Procedure, shortened: as §1

CYPSE (Flatsedge) [7] = assay: Preemergence weed control under flooded paddy conditions; assay type: in vivo, Cyperus serotinus; conditions: rated 3-4 weeks after treatment
Procedure, shortened: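 Silt loam, seeds in top 0.5 cm; flood held 1.5-3 cm; test cpd as acetone/water 50/50 into flood water, ~0.0313-0.500 kg/ha a.i.; greenhouse 3-4 wk; visual 0-9 score vs control.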

CASOB (Sicklepod) = assay: Preemergence herbicidal evaluation; assay type: in vivo, Cassia obtusifolia; conditions: rated 4-5 weeks after treatment; for CASOB rating: preemergence, 0-9 scale
Procedure, shortened: as §1

ECHCG (Barnyardgrass) = assay: Postemergence herbicidal evaluation; assay type: in vivo, Echinochloa crus-galli; conditions: postemergence
Procedure, shortened: as §2

[8] = Rate 0.0313 kg/ha, rated 3 to 4 weeks after treatment
[9] = Rate 0.0625 kg/ha, rated 3 to 4 weeks after treatment
[10] = Rate 0.1250 kg/ha, rated 3 to 4 weeks after treatment
[11] = Rate 0.2500 kg/ha, rated 3 to 4 weeks after treatment
[12] = Rate 0.5000 kg/ha, rated 3 to 4 weeks after treatment
[13] = rate 0.1160 kg/ha, 3-4 weeks after treatment
[14] = rate 0.2310 kg/ha, 3-4 weeks after treatment
[15] = rate 0.4630 kg/ha, 3-4 weeks after treatment

With `CCOC(=O)CN1C(=O)C(CC(=O)OC(C)C(=O)OCC)S/C1=N/c1cc(-n2c(=O)cc(C(F)(F)F)n(C)c2=O)c(F)cc1Cl` (stereo not drawn) [Compound 87] the GALAP rating (GALAP (Galium); 0.1250 kg/ha) was 0.0, the GALAP rating (GALAP (Galium); 0.2500 kg/ha) was 0.0 and the GALAP rating (GALAP (Galium); 0.5000 kg/ha) was 7.0. For the same compound, the ZEAMX herbicidal rating (ZEAMX (Corn, Field); rate 0.0156 kg/ha) was 4.0, the ZEAMX herbicidal rating (ZEAMX (Corn, Field); rate 0.0313 kg/ha) was 4.5 and the ZEAMX herbicidal rating (ZEAMX (Corn, Field); rate 0.0625 kg/ha) was 5.5. It also gave a ZEAMX herbicidal rating (ZEAMX (Corn, Field); rate 0.1250 kg/ha) of 7.5, a ZEAMX herbicidal rating (ZEAMX (Corn, Field); rate 0.2500 kg/ha) of 8.0 and an ABUTH herbicidal rating (ABUTH (Velvetleaf); rate 0.0156 kg/ha) of 2.0. The ABUTH herbicidal rating (ABUTH (Velvetleaf); rate 0.0313 kg/ha) was 4.0, the ABUTH herbicidal rating (ABUTH (Velvetleaf); rate 0.0625 kg/ha) was 9.0 and the ABUTH herbicidal rating (ABUTH (Velvetleaf); rate 0.1250 kg/ha) was 9.0. For the same compound, the ABUTH herbicidal rating (ABUTH (Velvetleaf); rate 0.2500 kg/ha) was 9.0, the “Herbicidal rating CYPIR” value (CYPIR (Rice Flatsedge); [8]) was 5.0 and the “Herbicidal rating CYPIR” value (CYPIR (Rice Flatsedge); [9]) was 5.0. The “Herbicidal rating CYPIR” value (CYPIR (Rice Flatsedge); [10]) was 5.0, the “Herbicidal rating CYPIR” value (CYPIR (Rice Flatsedge); [11]) was 5.0 and the “Herbicidal rating CYPIR” value (CYPIR (Rice Flatsedge); [12]) was 7.0. For the same compound, the CHEAL rating ([1]; 0.1250 kg/ha) was 4.0, the CHEAL rating ([1]; 0.2500 kg/ha) was 9.0 and the CHEAL rating ([1]; 0.5000 kg/ha) was 9.0. For the same compound, the ORYSAT herbicidal rating (ORYSAT (Rice, Tebonnet); rate 0.0156 kg/ha) was 0.0, the ORYSAT herbicidal rating (ORYSAT (Rice, Tebonnet); rate 0.0313 kg/ha) was 0.5 and the ORYSAT herbicidal rating (ORYSAT (Rice, Tebonnet); rate 0.0625 kg/ha) was 1.0. The ORYSAT herbicidal rating (ORYSAT (Rice, Tebonnet); rate 0.1250 kg/ha) was 1.5, the ORYSAT herbicidal rating (ORYSAT (Rice, Tebonnet); rate 0.2500 kg/ha) was 4.0 and the CHEAL herbicidal rating ([2]; rate 0.0156 kg/ha) was 0.0. The CHEAL herbicidal rating ([2]; rate 0.0313 kg/ha) was 0.0, the CHEAL herbicidal rating ([2]; rate 0.0625 kg/ha) was 3.0 and the CHEAL herbicidal rating ([2]; rate 0.1250 kg/ha) was 4.0. For the same compound, the CHEAL herbicidal rating ([2]; rate 0.2500 kg/ha) was 9.0, the GLXMAW herbicidal rating ([3]; rate 0.0156 kg/ha) was 4.5 and the GLXMAW herbicidal rating ([3]; rate 0.0313 kg/ha) was 5.5. The GLXMAW herbicidal rating ([3]; rate 0.0625 kg/ha) was 7.5, the GLXMAW herbicidal rating ([3]; rate 0.1250 kg/ha) was 8.0 and the GLXMAW herbicidal rating ([3]; rate 0.2500 kg/ha) was 9.0. It also gave an AMBEL herbicidal rating (AMBEL (Ragweed, Common) [4]; rate 0.0156 kg/ha) of 0.0, an AMBEL herbicidal rating (AMBEL (Ragweed, Common) [4]; rate 0.0313 kg/ha) of 4.0 and an AMBEL herbicidal rating (AMBEL (Ragweed, Common) [4]; rate 0.0625 kg/ha) of 7.0. The AMBEL herbicidal rating (AMBEL (Ragweed, Common) [4]; rate 0.1250 kg/ha) was 9.0, the AMBEL herbicidal rating (AMBEL (Ragweed, Common) [4]; rate 0.2500 kg/ha) was 9.0 and the “Herbicidal rating CYPSE” value (CYPSE (Flatsedge) [5]; [8]) was 0.0. The “Herbicidal rating CYPSE” value (CYPSE (Flatsedge) [5]; [9]) was 0.0, the “Herbicidal rating CYPSE” value (CYPSE (Flatsedge) [5]; [10]) was 5.0 and the “Herbicidal rating CYPSE” value (CYPSE (Flatsedge) [5]; [11]) was 5.0. The “Herbicidal rating CYPSE” value (CYPSE (Flatsedge) [5]; [12]) was 5.0, the AMBEL rating (AMBEL (Ragweed, Common) [6]; 0.1250 kg/ha) was 0.0 and the AMBEL rating (AMBEL (Ragweed, Common) [6]; 0.2500 kg/ha) was 0.0. For the same compound, the AMBEL rating (AMBEL (Ragweed, Common) [6]; 0.5000 kg/ha) was 9.0, the “CYPSE herbicidal effect rating” value (CYPSE (Flatsedge) [7]; 0.0313 kg/ha) was 0.0 and the “CYPSE herbicidal effect rating” value (CYPSE (Flatsedge) [7]; 0.0625 kg/ha) was 0.0. The “CYPSE herbicidal effect rating” value (CYPSE (Flatsedge) [7]; 0.1250 kg/ha) was 5.0, the “CYPSE herbicidal effect rating” value (CYPSE (Flatsedge) [7]; 0.2500 kg/ha) was 5.0 and the “CYPSE herbicidal effect rating” value (CYPSE (Flatsedge) [7]; 0.5000 kg/ha) was 5.0. The CASOB rating (CASOB (Sicklepod); 0.1250 kg/ha) was 0.0, the CASOB rating (CASOB (Sicklepod); 0.2500 kg/ha) was 0.0 and the CASOB rating (CASOB (Sicklepod); 0.5000 kg/ha) was 2.0. For the same compound, the ECHCG herbicidal rating (ECHCG (Barnyardgrass); rate 0.0156 kg/ha) was 0.0, the ECHCG herbicidal rating (ECHCG (Barnyardgrass); rate 0.0313 kg/ha) was 0.0 and the ECHCG herbicidal rating (ECHCG (Barnyardgrass); rate 0.0625 kg/ha) was 2.0. For the same compound, the ECHCG herbicidal rating (ECHCG (Barnyardgrass); rate 0.1250 kg/ha) was 9.0 and the ECHCG herbicidal rating (ECHCG (Barnyardgrass); rate 0.2500 kg/ha) was 9.0.
With `CCOC(=O)CN1C(=O)C(=Cc2ccc(F)cc2)SC1=Nc1cc(-n2c(=O)cc(C(F)(F)F)n(C)c2=O)c(F)cc1Cl` [Compound 21, Ethyl 2-{{2-chloro-5-[3,6-dihydro-3-methyl-2,6-dioxo-4-(trifluoromethyl)-1(2H)-pyrimidinyl]-4-fluorophenyl}imino}-5-(p-fluorobenzylidene)-4-oxo-3-thiazolidineacetate] the “GALAP preemergence herbicidal rating” value (GALAP (Galium); rate 0.2500 kg/ha) was 0.0, the ZEAMX herbicidal rating (ZEAMX (Corn, Field); rate 0.0158 kg/ha) was 4.0 and the ZEAMX herbicidal rating (ZEAMX (Corn, Field); rate 0.0315 kg/ha) was 4.0. It also gave a ZEAMX herbicidal rating (ZEAMX (Corn, Field); rate 0.0630 kg/ha) of 4.5, an ABUTH herbicidal rating (ABUTH (Velvetleaf); rate 0.0158 kg/ha) of 4.0 and an ABUTH herbicidal rating (ABUTH (Velvetleaf); rate 0.0315 kg/ha) of 7.0. The ABUTH herbicidal rating (ABUTH (Velvetleaf); rate 0.0630 kg/ha) was 9.0, the “Herbicidal rating CYPIR” value (CYPIR (Rice Flatsedge); [13]) was 0.0 and the “Herbicidal rating CYPIR” value (CYPIR (Rice Flatsedge); [14]) was 0.0. The “Herbicidal rating CYPIR” value (CYPIR (Rice Flatsedge); [15]) was 0.0, the “CHEAL preemergence herbicidal rating” value ([1]; rate 0.2500 kg/ha) was 9.0 and the ORYSAT herbicidal rating (ORYSAT (Rice, Tebonnet); rate 0.0158 kg/ha) was 2.0. For the same compound, the ORYSAT herbicidal rating (ORYSAT (Rice, Tebonnet); rate 0.0315 kg/ha) was 2.5, the ORYSAT herbicidal rating (ORYSAT (Rice, Tebonnet); rate 0.0630 kg/ha) was 2.5 and the CHEAL herbicidal rating ([2]; rate 0.0158 kg/ha) was 2.0. The CHEAL herbicidal rating ([2]; rate 0.0315 kg/ha) was 5.0, the CHEAL herbicidal rating ([2]; rate 0.0630 kg/ha) was 7.0 and the GLXMAW herbicidal rating ([3]; rate 0.0158 kg/ha) was 2.0. It also gave a GLXMAW herbicidal rating ([3]; rate 0.0315 kg/ha) of 2.5, a GLXMAW herbicidal rating ([3]; rate 0.0630 kg/ha) of 4.5 and an AMBEL herbicidal rating (AMBEL (Ragweed, Common) [4]; rate 0.0158 kg/ha) of 4.0. The AMBEL herbicidal rating (AMBEL (Ragweed, Common) [4]; rate 0.0315 kg/ha) was 4.0, the AMBEL herbicidal rating (AMBEL (Ragweed, Common) [4]; rate 0.0630 kg/ha) was 6.0 and the “Herbicidal rating CYPSE” value (CYPSE (Flatsedge) [5]; [13]) was 0.0. For the same compound, the “Herbicidal rating CYPSE” value (CYPSE (Flatsedge) [5]; [14]) was 0.0, the “Herbicidal rating CYPSE” value (CYPSE (Flatsedge) [5]; [15]) was 0.0 and the “AMBEL preemergence herbicidal rating” value (AMBEL (Ragweed, Common) [6]; rate 0.2500 kg/ha) was 0.0. For the same compound, the “Herbicidal rating CYPSE” value (CYPSE (Flatsedge) [7]; 0.1160 kg/ha) was 0.0, the “Herbicidal rating CYPSE” value (CYPSE (Flatsedge) [7]; 0.2310 kg/ha) was 0.0 and the “Herbicidal rating CYPSE” value (CYPSE (Flatsedge) [7]; 0.4630 kg/ha) was 0.0. For the same compound, the “CASOB preemergence herbicidal rating” value (CASOB (Sicklepod); rate 0.2500 kg/ha) was 0.0, the ECHCG herbicidal rating (ECHCG (Barnyardgrass); rate 0.0158 kg/ha) was 1.0 and the ECHCG herbicidal rating (ECHCG (Barnyardgrass); rate 0.0315 kg/ha) was 2.0. It also gave an ECHCG herbicidal rating (ECHCG (Barnyardgrass); rate 0.0630 kg/ha) of 2.0.
